Key:
HT29 cells = assay: Cell viability assay (MTS) in HT29 cells; type: cell-based; conditions: mean, n = 3
Method: (§1) HepG2, Huh7, H1299, HT29, AGS and A549 cells were purchased from the Korean Cell Line Bank (Seoul, Korea) and HaCaT cells were obtained from Prof. Sohee Kwon (Yonsei University, Korea). Liver cancer cells (HepG2), human keratinocyte cells (HaCaT), and lung cancer cells (A549) were grown in DMEM high-glucose medium, liver cancer cells (Huh7) and non-small cell lung cancer cells (H1299) were grown in RPMI 1640, and gastric cancer cells (AGS) were grown in Coon’s modified F12 medium. All media were supplemented with 10% FBS, 100 Units/mL penicillin, and 100 μg/mL streptomycin. All cells were incubated at 37 °C, 5% CO2 and 95% humidity.
(§2) Cell viability assay was conducted using Cell Titer 96® AQueous One Solution Cell proliferation Assay kit (Promega, Madison, WI, USA). Five cancer cells and HaCaT cells were plated in 96-well microplates with growth medium for 24 h. When cell confluency reached ~30%, cells were treated with DMSO (vehicle) and test compounds. The medium and test compounds were replaced every 24 h. To measure cell viability, the cells were incubated with MTS solution for 1 h. The absorbance was measured by using Infinite M200 microplate reader (Tecan, Männedorf, Switzerland) at 490 nm.

AGS cells = assay: Cell viability assay (MTS) in AGS cells; type: cell-based; conditions: 10 μM, mean, n = 3
Method: as §1, §2
(§3) Figure 2 Effect of 5r on cell viability in HepG2, Huh7, AGS, H1299, A549, HaCaT, NIH3T3, and HEK293T cells. (A–H) HepG2, Huh7, AGS, H1299, A549, HaCaT, NIH3T3, and HEK293T cells were cultured with 5r at the indicated concentrations for 72 h, and medium was replaced every 24 h with freshly added 5r. Cell viability was measured by MTS analysis (mean ± S.D., n = 5). * p < 0.05, ** p < 0.01, *** p < 0.001.

H1299 cells = assay: Cell viability assay (MTS) in H1299 cells; type: cell-based; conditions: 10 μM, mean, n = 3
Method: as §1, §2, §3

HepG2 cells = assay: Cell viability assay (MTS) in HepG2 cells; type: cell-based; conditions: mean; for IC50: Homo sapiens, MTS, n = 5, 72 h for 5r (Figure 2)
Method: as §1, §2, §3

Huh7 cells = assay: Cell viability assay (MTS) in Huh7 cells; type: cell-based; conditions: Homo sapiens, Huh-7, mean, n = 5, 72 h for 5r (Figure 2)
Method: as §1, §2, §3

A549 cells = assay: Cell viability assay (MTS) in A549 cells; type: cell-based; conditions: 10 μM, mean, n = 3
Method: as §1, §2, §3

HaCaT cells = assay: Cell viability assay (MTS) in HaCaT cells; type: cell-based, human; conditions: Homo sapiens, mean, n = 5
Method: as §1, §2, §3

hepatocellular carcinoma = tested on: hepatocellular carcinoma; design: method as in PMID 10951336, PMID 11408798, PMID 11462924, PMID 12115351, PMID 14612894; conditions: gemcitabine alone; phase 2 clinical trials; cited from earlier work
caspase-3 [1] = assay: Caspase-3 activity assay in HepG2 cells; type: cell-based; conditions: 20 μM Ac-DEVD-CHO, Figure 4C
Method: (§4) HepG2 and Huh7 cells were plated in 96-black-well plate to about 40% confluence, and then 5r was treated for 24 h. To assess activity of caspase-3, the growth medium was changed with 100 μL of PBS containing 1 μM caspase-3 substrate, NucView 488, and incubated at room temperature. After 20 min, 1 μM Hoechst 33342 was treated to stain the cells. Activity of caspase-3 was suppressed by Ac-DEVD-CHO, a selective caspase-3 inhibitor. FLUOstar Omega microplate reader (BMG Labtech, Ortenberg, Germany) was used to assess the fluorescence of NucView 488 and Hoechst, and Lionheart FX Automated Microscope (BioTek, Winooski, VT, USA) was used to acquire the fluorescence microscopy images.
(§5) Figure 4 Effect of 5r on activity of caspase-3 and cleavage of PARP in HepG2 and Huh7 cells. (A,B) HepG2 and Huh7 cells were incubated with 3 µM 5r for 24 h and then incubated with 1 µM caspase-3 substrate (green) and 1 µM Hoechst 33,342 (blue) for 20 min before image acquisition. (C,D) Cells were cultured with 5r at the indicated concentrations for 24 h and then 1 μM caspase-3 substrate was treated for 20 min. Caspase-3 was inhibited by 20 μM Ac-DEVD-CHO (mean ± S.D., n = 3). (E,F) Cells were cultured with 5r at the indicated concentrations for 24 h, and expression level of PARP, cleaved-PARP and β-actin were measured by Western blot analysis. […]

caspase-3 [2] = assay: Caspase-3 activity assay in Huh7 cells; type: cell-based; conditions: 20 μM Ac-DEVD-CHO, Figure 4D
Method: as §4, §5

Row | IC50 (HepG2 cells) | IC50 (Huh7 cells) | Compound | IC50 (HaCaT cells) | also measured
1 | 0.28 µM | 0.75 µM | N#Cc1c2c3cccn3c(-c3cccs3)nc2n2ccccc12 [Compound 5n, 5-(Thiophen-2-yl)pyrrolo[1′,2′:1,6]pyrimido[5,4-b]indolizine-12-carbonitrile] | 13.3 µM | % Inhibition of Cell Viability at 10 μM HT29 (HT29 cells): 48.4%; % Inhibition of Cell Viability at 10 μM AGS (AGS cells): <25%; % Inhibition of Cell Viability at 10 μM H1299 (H1299 cells): 70.3%; % Inhibition of Cell Viability at 10 μM HepG2 (HepG2 cells; 10 μM, n = 3): 98.9%; % Inhibition of Cell Viability at 10 μM A549 (A549 cells): 38.0%
2 | 2.94 µM | 4.02 µM | N#Cc1c2c3cccn3c(-c3cccc(O)c3)nc2n2ccccc12 [Compound 5s, 5-(3-Hydroxyphenyl)pyrrolo[1′,2′:1,6]pyrimido[5,4-b]indolizine-12-carbonitrile] | 8.49 µM | –
3 | 1.58 µM | 1.92 µM | N#Cc1c2c3cccn3c(-c3ccccc3F)nc2n2ccccc12 [Compound 5t, 5-(2-Fluorophenyl)pyrrolo[1′,2′:1,6]pyrimido[5,4-b]indolizine-12-carbonitrile] | 6.78 µM | –
4 | 2.1 µM | 3.95 µM | N#Cc1c2c3cccn3c(-c3ccccc3Cl)nc2n2ccccc12 [Compound 5u, 5-(2-Chlorophenyl)pyrrolo[1′,2′:1,6]pyrimido[5,4-b]indolizine-12-carbonitrile] | 11.5 µM | –
5 | 1.48 µM | 1.33 µM | N#Cc1c2c3cccn3c(-c3cccc(Cl)c3)nc2n2ccccc12 [Compound 5v, 5-(3-Chlorophenyl)pyrrolo[1′,2′:1,6]pyrimido[5,4-b]indolizine-12-carbonitrile] | 15.3 µM | –
6 | 1.75 µM | 2.72 µM | N#Cc1c2c3cccn3c(-c3ccccc3Br)nc2n2ccccc12 [Compound 5w, 5-(2-Bromophenyl)pyrrolo[1′,2′:1,6]pyrimido[5,4-b]indolizine-12-carbonitrile] | 9.53 µM | –
7 | 2.27 µM | 0.6 µM | N#Cc1c2c3[nH]c4ccccc4c3c(-c3cccs3)nc2n2ccccc12 [Compound 10d, 7-(Thiophen-2-yl)-12H-indolizino[2′,3′:5,6]pyrido[4,3-b]indole-13-carbonitrile] | 0.81 µM | –

The remaining lines, values behind:

Row | Compound | IC50 (HepG2 cells) | IC50 (Huh7 cells) | IC50 (HaCaT cells) | also measured
8 | COc1cccc(-c2nc3c(c(C#N)c4ccccn43)c3cccn23)c1 [Compound 5q, 5-(3-Methoxyphenyl)pyrrolo[1′,2′:1,6]pyrimido[5,4-b]indolizine-12-carbonitrile] | 1.31 µM | 1.45 µM | 8.3 µM | –
9 | N#Cc1c2c3cccn3c(-c3ncc[nH]3)nc2n2ccccc12 [Compound 5x, 5-(1H-Imidazol-2-yl)pyrrolo[1′,2′:1,6]pyrimido[5,4-b]indolizine-12-carbonitrile] | 3.52 µM | 7.85 µM | 24.1 µM | –
10 | COc1ccc(O)c(-c2nc3c(c(C#N)c4ccccn43)c3cccn23)c1 [Compound 5y, 5-(2-Hydroxy-5-methoxyphenyl)pyrrolo[1′,2′:1,6]pyrimido[5,4-b]indolizine-12-carbonitrile] | 0.79 µM | 0.64 µM | 2.25 µM | –
11 | COc1ccc(-c2nc3c(c(C#N)c4ccccn43)c3cccn23)c(O)c1 [Compound 5z, 5-(2-Hydroxy-4-methoxyphenyl)pyrrolo[1′,2′:1,6]pyrimido[5,4-b]indolizine-12-carbonitrile] | 0.64 µM | 0.71 µM | 1.95 µM | –
12 | Nc1ccn([C@@H]2O[C@H](CO)[C@@H](O)C2(F)F)c(=O)n1 [gemcitabine] | – | – | – | Response rate (hepatocellular carcinoma): 0–20%
13 | Ac-DEVD-CHO [reference compound] | – | – | – | Inhibition of 5r-increased caspase-3 activity in HepG2 cells (caspase-3 [1]): fully inhibited; Inhibition of 5r-increased caspase-3 activity in Huh7 cells (caspase-3 [2]): fully inhibited

From paper PMC9694334, “Synthesis and Biological Evaluation of a Fused Structure of Indolizine and Pyrrolo[1,2-c]pyrimidine: Identification of Its Potent Anticancer Activity against Liver Cancer Cells” (Pharmaceuticals, 2022)
